Patent US20170055529A1, “BROAD SPECTRUM WEED CONTROL IN FLOODED RICE BY IN-WATER APPLICATION OF AUXIN HERBICIDES” (priority 2015, published 2017)
Marks after values point to notes of the source that are not given here.

Experiments:
Format in all cases: in vivo
[1] = system: 'M202' rice (Japonica rice variety from California, USA); experiment: Greenhouse in-water application, transplanted paddy rice (small pots), crop injury
Text: (§1) Weed seeds of the desired test plant species were planted in puddled soil (mud) prepared by mixing a non-sterilized mineral soil (approximately 50 percent silt, 26 percent clay, and 24 percent sand, with a pH of about 7.6 and an organic matter content of about 2.9 percent) and water at a 1:1 volumetric ratio. The prepared mud was dispensed in 365 milliliter (mL) aliquots into 16-ounce (oz.) non-perforated plastic pots with a surface area of 86.59 square centimeters (cm^2) leaving a headspace of 3 centimeters (cm) in each pot. Mud was allowed to dry overnight prior to planting or transplanting. Rice seeds were planted in Sun Gro® MetroMix® 360 planting mixture, which typically has a pH of 6.0 to 6.8 and an organic matter content of about 30 percent, in plastic plug trays. Seedlings at the second or third leaf stage of growth were transplanted into 840 mL of mud contained in 32-oz. non-perforated plastic pots with a surface area of 86.59 cm^2 four days prior to herbicide application. The paddy was created by filling the headspace of the pots with 2.5 to 3 cm of water. When required to ensure good germination and healthy plants, a fungicide treatment and/or other chemical or physical treatment was applied. The plants were grown for 4-22 days (d) in a greenhouse with an approximate 14-hour (h) photoperiod which was maintained at about 29° C. during the day and 26° C. during the night. Nutrients were added as Osmocote® (19:6:12, Nitrogen:Phosphorus:Potassium (N:P:K)+minor nutrients) at 2 g per 16 oz. pot and 4 g per 32 oz. pot. Water was added on a regular basis to maintain the paddy flood, and supplemental lighting was provided with overhead metal halide 1000-Watt lamps as necessary. The plants were used for testing when they reached the second or third true leaf stage.
(§2) Triclopyr triethylammonium (as Grandstand® R, 359.5 grams acid equivalent per liter (g ae/L)); fluroxypyr methylheptyl ester (meptyl or MHE, as Starane™, 179.8 g ae/L); 2,4-dichlorophenoxyacetic acid dimethylammonium (2,4-D DMA, as Weedar® 64, 455.4 g ae/L); and penoxsulam (as Grasp® SC, 239.7 grams active ingredient per liter (g ai/L) were used. Measured amounts of formulated compounds were placed in individual 120 mL glass vials and were dissolved in 40 mL of an aqueous mixture containing 1.25% volume per volume (v/v) Agri-Dex® crop oil concentrate. Generally, multiple concentrations were tested utilizing the same stock solution. Applications were made by injecting an appropriate amount of the application solution into the aqueous layer of the paddy. Control plants were treated in the same manner with the solvent blank.
(§3) The treated plants and control plants were placed in a greenhouse as described above and water was added as needed to maintain a paddy flood. After approximately 3 weeks the condition of the test plants, compared with that of the untreated plants, was determined visually and scored on a scale of 0 to 100 percent where 0 corresponds to no injury or growth reduction and 100 corresponds to complete kill.

[2] = system: 'Wells' rice (Medium grain rice variety from Arkansas, USA); experiment: as above
Text: as §1, §2, §3

[3] = system: CYDPI = Cyperus difformis (small-flower flatsedge); experiment: Greenhouse in-water herbicidal activity (small pots)
Text: as §1, §2, §3

[4] = system: ECHCG = Echinochloa crus-galli (barnyardgrass); experiment: as above
Text: as §1, §2, §3

[5] = system: MOOVA = Monochoria vaginalis (monochoria); experiment: as above
Text: as §1, §2, §3

[6] = system: SCPJU = Schoenoplectus juncoides (Japanese bulrush); experiment: as above
Text: as §1, §2, §3

[7] = system: ORYSP = Oryza sativa (transplanted paddy rice); experiment: Greenhouse in-water application (large pots), crop injury
Protocol: Weed seeds or nutlets of the desired test plant species were planted in puddled soil (mud) prepared by mixing shredded topsoil and deionized (DI) water in a 1:1 ratio in a standard cement mixer. […] Osmocote® (17:6:10 N:P:K; 0.5 teaspoon) was added to the bottom of a container. The container is a high-density polyethylene (HDPE) round container (4.163 L (1.1 gallon), 15 cm high×20.55 cm diameter; for treatment purposes, the surface area is calculated as 331 cm^2 with 1 hectare equivalent to 10^8 cm^2). The mud mixture (2,750 mL) was added to the container filling it half full. Stakes were placed horizontally in each container to create separate areas for which to plant each different plant species. Water was added on a regular basis to maintain the paddy flood, and supplemental lighting was provided with overhead metal halide 1000-Watt lamps as necessary.
Once the plants had reached the proper size (the growth stage of the various species ranged from 2 to 4 leaves), the containers were flooded with city water to a depth of 3 cm submerging the plants 80-100%. The outside of each container was measured and marked at a 3-cm line with a black permanent marker to eliminate water level variability during the trial period. Water was added daily to maintain this water depth. Triclopyr triethylammonium (as Garlon® 3 A, 360 g ae/L); triclopyr butoxyethyl ester (as Garlon® 4, 480 g ae/L); fluroxypyr methylheptyl ester (meptyl or MHE, as Starane® Ultra, 333 g ae/L); fluroxypyr acid (850 grams acid equivalent per kilogram (g ae/kg)); 2,4-dichlorophenoxyacetic acid dimethylammonium (2,4-D DMA, as Weedar® 64 EC, 456 g ae/L); 2,4-dichlorophenoxyacetic acid 2-ethylhexyl ester (2,4-D 2-EHE, as Agri Star®, 456 g ae/L); clopyralid olamine (as Stinger®, 360 g ae/L); and penoxsulam (as Grasp® SC, 240 g ai/L) were used. Each herbicide treatment for each pot was mixed in water (80 mL) and applied directly into the paddy water at rates adjusted to the surface area. The dry formulations were pre-weighed based on the rate of the active ingredient to be applied on a per unit area basis, placed in 30 mL vials, and capped. Granules were spread onto the top of the water in each pot and dispersed throughout the water. Treatments were replicated 3 times.
The treated plants and control plants were placed in a greenhouse as described above and water was added as needed to maintain a flood depth of 3 cm. […]

SMILES	Percent (%) Visual Injury Ratings - 20 DAA, M202′ Rice ([1]; 280 g ae/ha in-water) [%]	Percent (%) Visual Injury Ratings - 20 DAA, M202′ Rice ([1]; 560 g ae/ha in-water) [%]	Percent (%) Visual Injury Ratings - 20 DAA, M202′ Rice ([1]; 1120 g ae/ha in-water)	Percent (%) Visual Injury Ratings - 20 DAA, Wells′ Rice ([2]; 280 g ae/ha in-water) [%]	Percent (%) Visual Injury Ratings - 20 DAA, Wells′ Rice ([2]; 560 g ae/ha in-water) [%]	Percent (%) Visual Injury Ratings - 20 DAA, Wells′ Rice ([2]; 1120 g ae/ha in-water) [%]	Percent (%) Visual Injury Ratings - 20 DAA, CYDPI ([3]; 280 g ae/ha in-water) [%]	Percent (%) Visual Injury Ratings - 20 DAA, CYDPI ([3]; 560 g ae/ha in-water) [%]	Percent (%) Visual Injury Ratings - 20 DAA, CYDPI ([3]; 1120 g ae/ha in-water) [%]	Percent (%) Visual Injury Ratings - 20 DAA, ECHCG ([4]; 280 g ae/ha in-water) [%]	Percent (%) Visual Injury Ratings - 20 DAA, ECHCG ([4]; 560 g ae/ha in-water) [%]	Percent (%) Visual Injury Ratings - 20 DAA, ECHCG ([4]; 1120 g ae/ha in-water) [%]	Percent (%) Visual Injury Ratings - 20 DAA, MOOVA ([5]; 280 g ae/ha in-water) [%]	Percent (%) Visual Injury Ratings - 20 DAA, MOOVA ([5]; 560 g ae/ha in-water) [%]	Percent (%) Visual Injury Ratings - 20 DAA, MOOVA ([5]; 1120 g ae/ha in-water) [%]	Percent (%) Visual Injury Ratings - 20 DAA, SCPJU ([6]; 280 g ae/ha in-water) [%]	Percent (%) Visual Injury Ratings - 20 DAA, SCPJU ([6]; 560 g ae/ha in-water) [%]	Percent (%) Visual Injury Ratings - 20 DAA, SCPJU ([6]; 1120 g ae/ha in-water) [%]	Percent (%) Visual Injury Ratings - 31 DAA, ORYSP ([7]; 280 g ae/ha in-water) [%]	Percent (%) Visual Injury Ratings - 31 DAA, ORYSP ([7]; 560 g ae/ha in-water) [%]	further results
O=C(O)COc1ccc(Cl)cc1Cl [2,4-D DMA (Weedar ® 64), dimethylammonium 2-(2,4-dichlorophenoxy)acetate]	0	0	10* %	0	0	0	90	100	100	0	20	80	90	100	99	70	100	100	0	3	Percent (%) Visual Injury Ratings - 31 DAA, ORYSP ([7]; 1120 g ae/ha in-water): 4%
CCCCCCC(C)OC(=O)COc1nc(F)c(Cl)c(N)c1Cl (stereo not drawn) [Fluroxypyr-meptyl (Starane ® Ultra), 1-methylheptyl 2-[(4-amino-3,5-dichloro-6-fluoro-2-pyridinyl)oxy]acetate]	0	0	35%	0	0	10	100	100	100	0	25	99	85	100	100	60	90	100	5	28	Percent (%) Visual Injury Ratings - 31 DAA, ORYSP ([7]; 1120 g ae/ha in-water): 73%
O=C(O)COc1nc(Cl)c(Cl)cc1Cl [Triclopyr triethanolamine (Garlon ® 3A), triethylammonium 2[(3,5,6-trichloro-2-pyridinyl)oxy]acetate]	0	0	20%	0	0	10	100	100	100	40	70	85	95	99	100	70	95	100	1	5	Percent (%) Visual Injury Ratings - 31 DAA, ORYSP ([7]; 1120 g ae/ha in-water): 70%
